Test results taken from US5087417A, “Control of senescence in fruits, vegetables and flowers” (University of Waterloo, priority 1986, dated 1992).

Key:
[1] = test system: Microsomes from senescing carnation flowers; assay: Inhibition of ethylene formation in vitro in carnation microsomes; format: biochemical
Method: This Example illustrates the inhibition of ethylene formation in vitro by the glucose ester of ferulic acid.
Microsomes from senescing carnation flowers were treated with varying quantities of the glucose ester of ferulic acid, isolated as described in Example 1, and the production of ethylene was determined as a percentage of the control production of ethylene in the absence of added ferulic acid ester

[2] = test system: petals of carnation flowers; assay: In vivo prevention of ethylene formation in carnation petals after incubation with ACC; settings: 1 mM taken up transpirationally
Method: This Example illustrates the use of the glucose ester of ferulic acid for in vivo prevention of ethylene formation in carnations.
The glucose ester of ferulic acid (1 mM), isolated as described in Example 1, was taken up transpirationally into petals of carnation flowers. Ethylene production was determined as a percentage of the ethylene produced by untreated control petals at various times after incubation with ACC.

lipoxygenase (LOX) [3] = assay: Lipoxygenase activity, carnation microsomal membranes; format: biochemical
Text: (§1) This Example illustrates the inhibition of lipoxygenase (LOX) activity by the glucose ester of ferulic acid.

lipoxygenase (LOX) [4] = assay: Lipoxygenase activity, bean cotyledon membrane and cytosol; format: biochemical
Text: as §1

[5] = Radical scavenging in a chemical system; settings: tests with a chemical system

Compound: COc1cc(/C=C/C(=O)O[C@@H]2O[C@H](CO)[C@@H](O)[C@H](O)[C@H]2O)ccc1O [glucose ester of ferulic acid]
- Ethylene Production ([1]; Control + 10 μM of Additive): 0.518 ± 0.019 n1.100 μg^-1 protein h^-1
- Ethylene Production % Control ([1]; Control + 10 μM of Additive): 53.9%
- Ethylene Production ([1]; Control + 50 μM of Additive): 0.014 ± 0.005 n1.100 μg^-1 protein h^-1
- Ethylene Production % Control ([1]; Control + 50 μM of Additive): 2.0%
- Ethylene Production ([1]; Control + 100 μM of Additive): 0 n1.100 μg^-1 protein h^-1
- Ethylene Production % Control ([1]; Control + 100 μM of Additive): 0%
- ethylene formation (in words) ([1]; concentration of 100 μM): zero
- % Inhibition of ethylene production ([2]; 12 hrs after treatment): 100%
- % Inhibition of ethylene production ([2]; 16 hrs after treatment): 97.3%
- % Inhibition of ethylene production ([2]; 21 hrs after treatment): 90.4%
- % Inhibition of ethylene production ([2]; 26 hrs after treatment): 81.7%
- inhibition of lipoxygenase activity derived from carnation (in words) (lipoxygenase (LOX) [3]; 40 μM solution): almost complete inhibition
- Lipoxygenase activity (% of control) (lipoxygenase (LOX) [3]; 100 μg membrane protein from Stage IV carnation, 40 μM): 1.8 % of control
- effect against LOX from other plant systems including bean cotyledons (in words) (lipoxygenase (LOX) [4]): effective
- Lipoxygenase activity (% of control) (lipoxygenase (LOX) [4]; 10 μg cytosol protein of 9 d bean cotyledon, 50 μM): 48.4 % of control
- Lipoxygenase activity (% of control) (lipoxygenase (LOX) [4]; 10 μg cytosol protein of 9 d bean cotyledon, 100 μM): 35.9 % of control
- Lipoxygenase activity (% of control) (lipoxygenase (LOX) [4]; 60 μg membrane protein of 9 d bean cotyledon, 50 μM): 46.3 % of control
- Lipoxygenase activity (% of control) (lipoxygenase (LOX) [4]; 60 μg membrane protein of 9 d bean cotyledon, 100 μM): 37.8 % of control
- effect on enzyme activity in membrane and cytosol preparations (in words) (lipoxygenase (LOX) [4]; 100 μm concentrations, all experiments): caused an inhibition of enzyme activity
- radical scavenger activity (in words) [5]: shown promise as a full radial scavenger
